Results published in publication PMC2667214, “End-Tagging of Ultra-Short Antimicrobial Peptides by W/F Stretches to Facilitate Bacterial Killing” (PLoS ONE, 2009).
Residues, ends and D or L forms follow the SMILES beside them. No end group written: not given here.

Key:
human leukocyte elastase = target: T1, human leukocyte elastase (Homo sapiens, UniProt P08246); experiment: Protease sensitivity assay; assay type: in vitro ADME; details: peptide 1 µg, neutrophil elastase 0.4 µg, 30 µl, 3 hours 37°C, SDS-PAGE 16.5% Tris-Tricine, Coomassie
T1 construct: purchased Calbiochem (La Jolla, USA)
T1 sequence (P08246 30-267): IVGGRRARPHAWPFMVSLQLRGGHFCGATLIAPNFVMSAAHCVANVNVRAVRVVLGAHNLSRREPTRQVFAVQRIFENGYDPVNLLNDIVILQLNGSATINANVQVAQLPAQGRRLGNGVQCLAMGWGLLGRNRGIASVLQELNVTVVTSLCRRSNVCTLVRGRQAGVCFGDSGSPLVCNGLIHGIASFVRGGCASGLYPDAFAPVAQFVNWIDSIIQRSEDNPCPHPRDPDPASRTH
Method: (§1) Peptides (1 µg) were incubated at 37°C with S. aureus aureolysin (0.1 µg, 25000 units/mg), S. aureus V8 proteinase (0.1 µg, 2000 mU), both from BioCol GmbH (Potsdam, Germany), or neutrophil elastase (0.4 µg, 29 units/mg; Calbiochem (La Jolla, USA)) in a total volume of 30 µl for 3 hours. The materials were analyzed on 16.5% precast sodium dodecyl sulfate polyacrylamide (SDS-PAGE) Tris-Tricine gels (BioRad, Hercules, USA) and analyzed after staining with Coomassie Blue R-250 (Merck, Darmstadt, Germany).
(§2) Figure 5 (A) Protease sensitivity of peptides. KNK10 and KNK10-WWWWW were incubated with (+) or without (−) the S. aureus enzymes aureolysin (Aur), V8 proteinase (V8), or human leukocyte elastase (HLE), and analyzed by SDS-PAGE (16.5% Tris-Tricine gels). (B) Activities of peptides in an ex vivo skin infection model. Pig skin was inoculated with E. coli ATCC 25922 (upper panel) or S. aureus ATCC 29213 (lower panel). Peptides at 1 mM were added after an incubation time of 4 h. Bacteria were collected after 2 h and cfu determined (mean values are presented, n = 6). Note the logarithmic scale on the y-axis. (In Figure 5B, the difference between tagged and non-tagged peptide is statistically significant in all cases (P<0.002, one way ANOVA).)

S. aureus aureolysin = target: T2, S. aureus aureolysin (Staphylococcus aureus, UniProt P81177); assay type: in vitro ADME; details: peptide 1 µg, aureolysin 0.1 µg, 30 µl, 3 hours 37°C, SDS-PAGE 16.5% Tris-Tricine, Coomassie
T2 construct: purchased BioCol GmbH (Potsdam, Germany)
Method: as §1, §2

S. aureus V8 proteinase = target: T3, S. aureus V8 proteinase (Staphylococcus aureus, UniProt P0C1U8); assay type: in vitro ADME; details: peptide 1 µg, V8 proteinase 0.1 µg, 30 µl, 3 hours 37°C, SDS-PAGE 16.5% Tris-Tricine, Coomassie
T3 construct: purchased BioCol GmbH (Potsdam, Germany)
Method: as §1, §2

[1] = test system: Escherichia coli ATCC 25922; assay type: cell-based; details: ATCC 25922, 100
Method: (§3) Essentially as described earlier, [31] bacteria were grown to mid-logarithmic phase in 10 ml of full-strength (3% w/v) trypticase soy broth (TSB) (Becton-Dickinson, Cockeysville, USA). The microorganisms were then washed once with 10 mM Tris, pH 7.4. Subsequently, 4×10^6 bacterial colony forming units were added to 15 ml of the underlay agarose gel, consisting of 0.03% (w/v) TSB, 1% (w/v) low electroendosmosis type (EEO) agarose (Sigma-Aldrich, St. Louis, USA) and 0.02% (v/v) Tween 20 (Sigma-Aldrich, St. Louis, USA). The underlay was poured into a Ø 144 mm petri dish. After agarose solidification, 4 mm-diameter wells were punched and 6 µl of peptide with required concentration added to each well. Plates were incubated at 37°C for 3 hours to allow diffusion of the peptides. The underlay gel was then covered with 15 ml of molten overlay (6% TSB and 1% Low-EEO agarose in distilled H2O). […]
(§4) Figure 1 Antibacterial and hemolytic activity of peptides. (A) Antibacterial activity of PEPscreen peptides as assessed by radial diffusion assay (RDA) in the presence and absence of 0.15 M NaCl against E. coli ATCC 25922 and S. aureus ATCC 29213, as well as hemolysis. […] The absorbance of hemoglobin release was measured at 540 nm and is expressed as % of Triton X-100 induced hemolysis. […]

[2] = test system: Staphylococcus aureus ATCC 29213; assay type: cell-based; details: ATCC 29213, 100
Method: as §3, §4

T3 sequence (P0C1U8 69-336): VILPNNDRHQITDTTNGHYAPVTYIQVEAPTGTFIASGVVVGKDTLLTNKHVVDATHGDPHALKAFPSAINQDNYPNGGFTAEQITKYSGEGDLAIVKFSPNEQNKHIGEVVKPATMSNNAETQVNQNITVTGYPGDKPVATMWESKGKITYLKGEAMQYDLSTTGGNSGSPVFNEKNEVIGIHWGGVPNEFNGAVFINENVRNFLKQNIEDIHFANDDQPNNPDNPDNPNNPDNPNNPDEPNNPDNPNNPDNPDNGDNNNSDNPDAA
T2 sequence (P81177 209-509): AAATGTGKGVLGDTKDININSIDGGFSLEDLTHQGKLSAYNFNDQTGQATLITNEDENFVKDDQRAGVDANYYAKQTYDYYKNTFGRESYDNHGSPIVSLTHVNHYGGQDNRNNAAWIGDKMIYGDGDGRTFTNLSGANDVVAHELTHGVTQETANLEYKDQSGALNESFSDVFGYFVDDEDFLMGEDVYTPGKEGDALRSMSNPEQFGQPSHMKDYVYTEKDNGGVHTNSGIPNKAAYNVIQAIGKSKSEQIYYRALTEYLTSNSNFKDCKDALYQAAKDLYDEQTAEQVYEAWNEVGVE

Compound | stability against proteolytic degradation (in words) (human leukocyte elastase) | stability against proteolytic degradation (in words) (S. aureus aureolysin) | stability against proteolytic degradation (in words) (S. aureus V8 proteinase) | clearance zone in RDA [1] [mm] | clearance zone in RDA [2] [mm]
CC[C@H](C)[C@H](NC(=O)[C@H](CCCCN)NC(=O)[C@H](CCC(=O)O)NC(=O)[C@H](CCCCN)NC(=O)[C@H](CO)NC(=O)[C@H](CCCCN)NC(=O)[C@H](CCCNC(=N)N)NC(=O)[C@H](Cc1ccccc1)NC(=O)[C@H](Cc1ccccc1)NC(=O)[C@H](CC(=O)O)NC(=O)CNC(=O)[C@H](CC(C)C)NC(=O)[C@@H](N)CC(C)C)C(=O)NCC(=O)N[C@@H](CCCCN)C(=O)N[C@@H](CCC(=O)O)C(=O)N[C@@H](Cc1ccccc1)C(=O)N[C@@H](CCCCN)C(=O)N[C@@H](CCCNC(=N)N)C(=O)N[C@H](C(=O)N[C@H](C(=O)N[C@@H](CCC(N)=O)C(=O)N[C@@H](CCCNC(=N)N)C(=O)N[C@H](C(=O)N[C@@H](CCCCN)C(=O)N[C@@H](CC(=O)O)C(=O)N[C@@H](Cc1ccccc1)C(=O)N[C@@H](CC(C)C)C(=O)N[C@@H](CCCNC(=N)N)C(=O)N[C@@H](CC(N)=O)C(=O)N[C@@H](CC(C)C)C(=O)N[C@H](C(=O)N1CCC[C@H]1C(=O)N[C@@H](CCCNC(=N)N)C(=O)N[C@H](C(=O)N[C@@H](CCC(=O)O)C(=O)N[C@@H](CO)C(=O)O)[C@@H](C)O)C(C)C)[C@@H](C)CC)C(C)C)[C@@H](C)CC [LL-37] | substantial degradation | substantial degradation | substantial degradation | – | –
N[C@@H](Cc1c[nH]c2ccccc12)C(=O)N[C@@H](Cc1c[nH]c2ccccc12)C(=O)N[C@@H](Cc1c[nH]c2ccccc12)C(=O)O [WWW] (H-Trp-Trp-Trp-OH) | – | – | – | 0 | 0
KNKGKKNGKH [KNK10] | – | good stability | good stability | – | –
KNKGKKNGKHWWWWW [KNK10-WWWWW] | – | good stability | good stability | – | –
